These results are taken from BindingDB's records for doi:10.1016/j.bmc.2008.10.052 (Universidade Federal De Santa Maria, 2008).

Each structure is given as a SMILES string.

Sequence of Cruzipain (P25779 whole entry, the tested form may be a part): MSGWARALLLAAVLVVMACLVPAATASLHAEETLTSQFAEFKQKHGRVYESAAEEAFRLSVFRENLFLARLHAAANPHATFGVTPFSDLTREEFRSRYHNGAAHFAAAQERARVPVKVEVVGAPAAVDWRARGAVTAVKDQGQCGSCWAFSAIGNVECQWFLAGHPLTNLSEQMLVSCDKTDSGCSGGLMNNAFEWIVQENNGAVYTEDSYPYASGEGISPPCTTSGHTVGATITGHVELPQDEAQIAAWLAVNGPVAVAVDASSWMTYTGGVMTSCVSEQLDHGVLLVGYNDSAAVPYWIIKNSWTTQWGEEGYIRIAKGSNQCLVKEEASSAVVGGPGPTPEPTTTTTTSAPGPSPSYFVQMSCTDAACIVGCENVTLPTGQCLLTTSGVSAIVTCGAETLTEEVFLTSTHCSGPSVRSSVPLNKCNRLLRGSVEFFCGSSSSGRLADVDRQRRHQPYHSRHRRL

This assay has as its target Cruzipain (Trypanosoma cruzi, UniProt P25779). The assay can be described thus: Inhibition of Trypanosoma cruzi C-terminal truncated cruzain expressed in DH5alpha Escherichia coli by well-microplate spectrophotometry.
Consider `COc1ccccc1CN=Nc1nc(C)cc(C(F)(F)F)n1` [2-(N'-2-Methoxy-benzylidenehydrazino)-6-methyl-4-trifluoromethyl-pyri-midine], for which the IC50 is greater than 150 µM.

In turn, `Cc1ccccc1CN=Nc1nccc(C(F)(F)F)n1` [2-(N'-2-Methyl-benzylidenehydrazino)-4-trifluoromethyl-pyrimidine] had a half-maximal inhibitory concentration (IC50) greater than 100 µM.

With `Cc1cc(C(F)(F)F)nc(N=NCc2ccccc2C)n1` [2-(N'-2-Methyl-benzylidenehydrazino)-6-methyl-4-trifluoromethyl-pyrimidine], the 50% inhibitory concentration (IC50) is greater than 100 µM.

Consider `Cc1ccc(CN=Nc2nccc(C(F)(F)F)n2)cc1` [2-(N'-4-Methyl-benzylidenehydrazino)-4-trifluoromethyl-pyrimidine], for which the IC50 was greater than 100 µM.

As for `O=[N+]([O-])c1ccc(CN=Nc2nccc(C(F)(F)F)n2)cc1` [2-(N'-4-Nitro-benzylidenehydrazino)-4-trifluoromethylpyrimidine], half-maximal inhibition (IC50) required 100 µM.

On to `Cc1cc(C(F)(F)F)nc(N=NCc2ccc(Cl)cc2)n1` [2-(N'-4-chloro-benzylidenehydrazino)-6-methyl-4-trifluoro-methyl-pyrimidine], for which the 50% inhibitory concentration (IC50) came out at 100 µM.

`COc1ccc(CN=Nc2nccc(C(F)(F)F)n2)cc1` [2-(N'-4-methoxy-benzylidenehydrazino)-4-trifluoromethyl-pyrimidine] displayed an IC50 greater than 100 µM.

In turn, `FC(F)(F)c1ccnc(N=NCc2ccccc2)n1` [2-(N'-Benzylidenehydrazino)-4-trifluoromethylpyrimidine] registered a 50% inhibitory concentration (IC50) greater than 150 µM.

The term IC50 denotes the concentration that inhibits the measured activity by half.
